According to PMC10786919, “Design-rules for stapled peptides with in vivo activity and their application to Mdm2/X antagonists” (Nature Communications, 2024):
Converted amounts (≈) assume the structure as drawn. Like-named read-outs stand apart in the source and are kept apart here. Positions of bridges follow the written chain, without caps; N, C: chain ends. Non-standard residues stand in square brackets, D forms with d. Residues, ends and D or L forms follow the SMILES beside them. Lys(N3) = [N-]=[N+]=NCCCC[C@H](N)C(=O)O; R8 = C=CCCCCCC[C@@](C)(N)C(=O)O; Cba = N[C@@H](CC1CCC1)C(=O)O; S5 = C=CCCC[C@](C)(N)C(=O)O; Ahx = NCCCCCC(=O)O; βAla = NCCC(=O)O

Experiments:
[1] = Solubility assay (kinetic solubility, PBS pH 7); assay type: physicochemical; conditions: pH 7, PBS; for solubility kinetic: pH 7, aqueous buffer, kinetic from dmso stock, read-out: Solubility
Procedure, shortened: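 Std: 10 mM stock → 100 µM in ACN/MeOH/DMSO (10:80:10). Sol. [µM] = (sample peak area / std peak area) × std conc.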

[2] = Nanoclick permeability assay
Procedure, shortened: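 Azido-peptide permeability was read as loss of NanoBRET signal (donor 450 nm, acceptor 610 nm) after adding NanoBret618-azide at 10 μM final.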

HCT116 cells = experiment: Lactate dehydrogenase (LDH) release assay; assay type: cell-based
Procedure, shortened: (§1)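 Read-out was lactate dehydrogenase release, reflecting loss of membrane integrity, in reporter-engineered HCT116 cells (p53-responsive β-lactamase) seeded at 8000 cells per well. Final DMSO was 0.5%, and reported values are geometric means from three or more biological repeats.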

[3] = Lactate dehydrogenase (LDH) release assay; assay type: cell-based
Procedure, shortened: as §1

[4] = Experimental LogD (partition coefficient); conditions: for logD: not stated, Partition Coeff LogD
[5] = 0% FBS 4Hr, read-out: LDH: Cytotoxicity assay EC50
[6] = 4 hours, 0% serum, read-out: LDH Cytotoxicity assay EC50
[7] = Nanoclick permeability assay EC50

CC(=O)N[C@@H](CCCCN=[N+]=[N-])C(=O)NCCC(=O)N[C@@H](CC(C)C)C(=O)N[C@@H](C)C(=O)N[C@@H](Cc1ccccc1)C(=O)N[C@]1(C)CCCCCCC=CCCC[C@@](C)(C(=O)N[C@@H](CO)C(=O)N[C@@H](C)C(=O)N[C@@H](C)C(N)=O)NC(=O)[C@H](CC2CCC2)NC(=O)[C@H](CCC(N)=O)NC(=O)[C@H](C)NC(=O)[C@H](Cc2c[nH]c3ccccc23)NC(=O)[C@H](Cc2ccc(O)cc2)NC(=O)[C@H](CCC(=O)O)NC1=O [MP-953, AZIDE-ATSP-7041 (T2A)] (Ac-[Lys(N3)][βAla]LAF[R8]EYWAQ[Cba][S5]SAA-NH2; staple 6-13)
solubility kinetic [1]: 186 µM (≈ 361 µg/mL)
cell entry EC50 [2]: 494 nM
LDH: Cytotoxicity assay % Effect (HCT116 cells; 0% FBS 4Hr): 11.05%
LDH: Cytotoxicity assay % Effect (HCT116 cells; 0% FBS 16Hr): -0.16%
EC50 [3, 5]: > 50 µM
logD [4]: 2.93
EPSA (physchem): 221 A^2

CC(=O)N[C@@H](CCCCN=[N+]=[N-])C(=O)NCCC(=O)N[C@@H](C)C(=O)N[C@@H](C)C(=O)N[C@@H](Cc1ccccc1)C(=O)N[C@]1(C)CCCCCCC=CCCC[C@@](C)(C(=O)N[C@@H](CO)C(=O)N[C@@H](C)C(=O)N[C@@H](C)C(N)=O)NC(=O)[C@H](CC2CCC2)NC(=O)[C@H](CCC(N)=O)NC(=O)[C@H](C)NC(=O)[C@H](Cc2c[nH]c3ccccc23)NC(=O)[C@H](Cc2ccc(O)cc2)NC(=O)[C@H](CCC(=O)O)NC1=O [MP-957, AZIDE-ATSP-7041 (L1A,T2A)] (Ac-[Lys(N3)][βAla]AAF[R8]EYWAQ[Cba][S5]SAA-NH2; staple 6-13)
solubility kinetic [1]: 101 µM (≈ 192 µg/mL)
cell entry EC50 [2]: 125 nM
LDH: Cytotoxicity assay % Effect (HCT116 cells; 0% FBS 4Hr): 25.16%
EC50 [3, 5]: 17.1 µM
EC50 [3, 6]: 17.1 µM
logD [4]: 2.69
EPSA (physchem): 226 A^2

CC(=O)N[C@@H](CCCCN=[N+]=[N-])C(=O)NCCC(=O)N[C@@H](CC(C)C)C(=O)N[C@@H](CCCCN)C(=O)N[C@@H](Cc1ccccc1)C(=O)N[C@]1(C)CCCCCCC=CCCC[C@@](C)(C(=O)N[C@@H](CO)C(=O)N[C@@H](C)C(=O)N[C@@H](C)C(N)=O)NC(=O)[C@H](CC2CCC2)NC(=O)[C@H](CCC(N)=O)NC(=O)[C@H](C)NC(=O)[C@H](Cc2c[nH]c3ccccc23)NC(=O)[C@H](Cc2ccc(O)cc2)NC(=O)[C@H](CCC(=O)O)NC1=O [MP-547, AZIDE-ATSP-7041 (T2K)]
solubility kinetic [1]: 3 µM (≈ 5.99 µg/mL)
cell entry EC50 [2]: 72.2 nM
LDH: Cytotoxicity assay % Effect (HCT116 cells; 0% FBS 4Hr): 26.9%
LDH: Cytotoxicity assay % Effect (HCT116 cells; 0% FBS 16Hr): 15.73%
EC50 [3, 5]: > 50 µM
logD [4]: 3.02
EPSA (physchem): 229 A^2

CC(=O)N[C@@H](CCCCN=[N+]=[N-])C(=O)NCCC(=O)N[C@@H](CC(C)C)C(=O)N[C@H](C(=O)N[C@@H](Cc1ccccc1)C(=O)N[C@]1(C)CCCCCCC=CCCC[C@@](C)(C(=O)N[C@@H](CO)C(=O)N[C@@H](C)C(=O)N[C@@H](C)C(N)=O)NC(=O)[C@H](CC2CCC2)NC(=O)[C@H](Cc2c[nH]cn2)NC(=O)[C@H](C)NC(=O)[C@H](Cc2c[nH]c3ccccc23)NC(=O)[C@H](Cc2ccc(O)cc2)NC(=O)[C@H](CCC(=O)O)NC1=O)[C@@H](C)O [MP-176, AZIDE-ATSP-7041 (Q9H)]
solubility kinetic [1]: 2 µM (≈ 3.96 µg/mL)
cell entry EC50 [2]: 396 nM
LDH: Cytotoxicity assay % Effect (HCT116 cells; 0% FBS 4Hr): 5.39%
LDH: Cytotoxicity assay % Effect (HCT116 cells; 0% FBS 16Hr): 4.02%
EC50 [3, 5]: > 50 µM
logD [4]: 2.88
EPSA (physchem): 222 A^2

CC(=O)N[C@@H](CCCCN=[N+]=[N-])C(=O)N[C@@H](CCCCN)C(=O)NCCCCCC(=O)N[C@H](C(=O)N[C@@H](CO)C(=O)N[C@@H](Cc1ccccc1)C(=O)N[C@]1(C)CCCCCCC=CCCC[C@@](C)(C(=O)N[C@@H](CCC(=O)O)C(=O)N[C@@H](CC(N)=O)C(=O)N[C@@H](Cc2ccccc2)C(N)=O)NC(=O)[C@H](CC(C)C)NC(=O)[C@H](CC(C)C)NC(=O)[C@H](C)NC(=O)[C@H](Cc2c[nH]c3ccccc23)NC(=O)[C@H](Cc2ccc(O)cc2)NC(=O)[C@H](CCC(=O)O)NC1=O)[C@@H](C)O [MP-084] (Ac-[Lys(N3)]K[Ahx]TSF[R8]EYWALL[S5]ENF-NH2; staple 7-14)
solubility kinetic [1]: 2 µM (≈ 4.5 µg/mL)
cell entry EC50 [2, 7]: 74.5 nM
LDH: Cytotoxicity assay % Effect (HCT116 cells): 0.08783%
EC50 ([3]; LDH: Cytotoxicity assay EC50): > 50.7 µM
logD [4]: 2.56
EPSA (physchem): 187 A^2

CC(=O)N[C@@H](CCCCN=[N+]=[N-])C(=O)NCCC(=O)N[C@@H](CC(C)C)C(=O)N[C@H](C(=O)N[C@@H](Cc1ccccc1)C(=O)N[C@]1(C)CCCCCCC=CCCC[C@@](C)(C(=O)N[C@@H](CO)C(=O)N[C@@H](C)C(=O)N[C@@H](C)C(N)=O)NC(=O)[C@H](CC2CCC2)NC(=O)[C@H](CCC(N)=O)NC(=O)[C@H](CCCCN)NC(=O)[C@H](Cc2c[nH]c3ccccc23)NC(=O)[C@H](Cc2ccc(O)cc2)NC(=O)[C@H](CCC(=O)O)NC1=O)[C@@H](C)O [MP-549, AZIDE-ATSP-7041 (A8K)]
solubility kinetic [1]: 4.5 µM (≈ 9.12 µg/mL)
cell entry EC50 [2]: 233 nM
LDH: Cytotoxicity assay % Effect (HCT116 cells; 0% FBS 4Hr): 7.105%
LDH: Cytotoxicity assay % Effect (HCT116 cells; 0% FBS 16Hr): 45.26%
EC50 [3, 5]: > 50 µM
logD [4]: 2.75
EPSA (physchem): 220 A^2

CC(=O)N[C@@H](CCCCN=[N+]=[N-])C(=O)NCCC(=O)N[C@@H](CC(C)C)C(=O)N[C@H](C(=O)N[C@@H](Cc1ccccc1)C(=O)N[C@]1(C)CCCCCCC=CCCC[C@@](C)(C(=O)N[C@@H](CO)C(=O)N[C@@H](C)C(=O)N[C@@H](C)C(N)=O)NC(=O)[C@H](CC2CCC2)NC(=O)[C@H](CCC(N)=O)NC(=O)[C@H](C)NC(=O)[C@H](Cc2c[nH]c3ccccc23)NC(=O)[C@H](Cc2ccc(O)cc2)NC(=O)[C@H](CCCCN)NC1=O)[C@@H](C)O [MP-548, AZIDE-ATSP-7041 (E5K)]
solubility kinetic [1]: 5 µM (≈ 9.85 µg/mL)
cell entry EC50 [2]: 1020 nM
LDH: Cytotoxicity assay % Effect (HCT116 cells; 0% FBS 4Hr): 84.33%
LDH: Cytotoxicity assay % Effect (HCT116 cells; 0% FBS 16Hr): 14.03%
EC50 [3, 5]: 12.3 µM
EC50 [3, 6]: 12.2 µM
logD [4]: 3.25
EPSA (physchem): 213 A^2

CC(=O)N[C@@H](CCCCN=[N+]=[N-])C(=O)NCCC(=O)N[C@@H](CC(C)C)C(=O)N[C@@H](Cc1c[nH]cn1)C(=O)N[C@@H](Cc1ccccc1)C(=O)N[C@]1(C)CCCCCCC=CCCC[C@@](C)(C(=O)N[C@@H](CO)C(=O)N[C@@H](C)C(=O)N[C@@H](C)C(N)=O)NC(=O)[C@H](CC2CCC2)NC(=O)[C@H](CCC(N)=O)NC(=O)[C@H](C)NC(=O)[C@H](Cc2c[nH]c3ccccc23)NC(=O)[C@H](Cc2ccc(O)cc2)NC(=O)[C@H](CCC(=O)O)NC1=O [MP-174, AZIDE-ATSP-7041 (T2H)]
cell entry EC50 [2]: 50.6 nM
LDH: Cytotoxicity assay % Effect (HCT116 cells; 0% FBS 4Hr): 2.115%
LDH: Cytotoxicity assay % Effect (HCT116 cells; 0% FBS 16Hr): 21.18%
EC50 [3, 5]: > 50 µM
logD [4]: 2.84
EPSA (physchem): 225 A^2

CC(=O)N[C@@H](CCCCN=[N+]=[N-])C(=O)NCCC(=O)N[C@@H](CC(C)C)C(=O)N[C@H](C(=O)N[C@@H](Cc1ccccc1)C(=O)N[C@]1(C)CCCCCCC=CCCC[C@@](C)(C(=O)N[C@@H](CO)C(=O)N[C@@H](C)C(=O)N[C@@H](C)C(N)=O)NC(=O)[C@H](CC2CCC2)NC(=O)C(C)(C)NC(=O)[C@H](C)NC(=O)[C@H](Cc2c[nH]c3ccccc23)NC(=O)[C@H](Cc2ccc(O)cc2)NC(=O)[C@H](CCC(=O)O)NC1=O)[C@@H](C)O [MP-171]
solubility kinetic [1]: 34 µM (≈ 65.5 µg/mL)
cell entry EC50 [2, 7]: 195 nM
EC50 ([3]; LDH: Cytotoxicity assay EC50): > 50 µM
logD [4]: 3
EPSA (physchem): 222 A^2

CC(=O)N[C@@H](CCCCN=[N+]=[N-])C(=O)NCCC(=O)N[C@@H](CC(C)C)C(=O)N[C@H](C(=O)N[C@@H](Cc1ccccc1)C(=O)N[C@]1(C)CCCCCCC=CCCC[C@@](C)(C(=O)N[C@@H](CO)C(=O)N[C@@H](C)C(=O)N[C@@H](CC(C)C)C(N)=O)NC(=O)[C@H](CC2CCC2)NC(=O)[C@H](CCC(N)=O)NC(=O)[C@H](C)NC(=O)[C@H](Cc2c[nH]c3ccccc23)NC(=O)[C@H](Cc2c[nH]c3ccccc23)NC(=O)[C@H](Cc2c[nH]c3ccccc23)NC1=O)[C@@H](C)O [MP-544] (Ac-[Lys(N3)][βAla]LTF[R8]WWWAQ[Cba][S5]SAL-NH2; staple 6-13)
Solubility [1]: Poorly Behaved
cell entry EC50 [2, 7]: 124 nM
EC50 ([3]; LDH: Cytotoxicity assay EC50): > 50.6 µM
Partition Coeff LogD [4]: Poorly Behaved
EPSA (physchem): 227 A^2

CC(=O)N[C@@H](CCCCN=[N+]=[N-])C(=O)NCCC(=O)N[C@@H](CCCNC(=N)N)C(=O)N[C@H](C(=O)N[C@@H](Cc1ccccc1)C(=O)N[C@]1(C)CCCCCCC=CCCC[C@@](C)(C(=O)N[C@@H](CO)C(=O)N[C@@H](C)C(=O)N[C@@H](CC(C)C)C(N)=O)NC(=O)[C@H](CC2CCC2)NC(=O)[C@H](CCC(N)=O)NC(=O)[C@H](CC(C)C)NC(=O)[C@H](Cc2c[nH]c3ccccc23)NC(=O)[C@H](Cc2ccc(O)cc2)NC(=O)[C@H](CCC(=O)O)NC1=O)[C@@H](C)O [MP-541] (Ac-[Lys(N3)][βAla]RTF[R8]EYWLQ[Cba][S5]SAL-NH2; staple 6-13)
solubility kinetic [1]: 4 µM (≈ 8.39 µg/mL)
cell entry EC50 [2, 7]: 210 nM
EC50 ([3]; LDH: Cytotoxicity assay EC50): > 50.6 µM
logD [4]: 3.58
EPSA (physchem): 224 A^2

CC(=O)N[C@@H](CCCCN=[N+]=[N-])C(=O)NCCC(=O)N[C@@H](CCCNC(=N)N)C(=O)N[C@H](C(=O)N[C@@H](Cc1ccccc1)C(=O)N[C@]1(C)CCCCCCC=CCCC[C@@](C)(C(=O)N[C@@H](CCCCN)C(=O)N[C@@H](C)C(=O)N[C@@H](C)C(N)=O)NC(=O)[C@H](CC2CCC2)NC(=O)[C@H](CCCNC(=N)N)NC(=O)[C@H](C)NC(=O)[C@H](Cc2c[nH]c3ccccc23)NC(=O)[C@H](Cc2ccc(O)cc2)NC(=O)[C@H](CCC(=O)O)NC1=O)[C@@H](C)O [MP-537] (Ac-[Lys(N3)][βAla]RTF[R8]EYWAR[Cba][S5]KAA-NH2; staple 6-13)
solubility kinetic [1]: 140 µM (≈ 292 µg/mL)
cell entry EC50 [2, 7]: 87.9 nM
EC50 ([3]; LDH: Cytotoxicity assay EC50): 7.29 µM
logD [4]: 2.48
EPSA (physchem): 224 A^2
